Assay results from paper PMC8740820 (Toxicology and applied pharmacology, 2014).
“Also recorded” adds a separate entry of the source. Where two headings read alike, the source gives them in different places.

Legend:
[1] = biological target: T1, hERα (Homo sapiens, UniProt P03372); details: HELN-hERα compared to hERβ, ref Escande et al., 2006, cited from earlier work
T1 sequence (P03372 1-595): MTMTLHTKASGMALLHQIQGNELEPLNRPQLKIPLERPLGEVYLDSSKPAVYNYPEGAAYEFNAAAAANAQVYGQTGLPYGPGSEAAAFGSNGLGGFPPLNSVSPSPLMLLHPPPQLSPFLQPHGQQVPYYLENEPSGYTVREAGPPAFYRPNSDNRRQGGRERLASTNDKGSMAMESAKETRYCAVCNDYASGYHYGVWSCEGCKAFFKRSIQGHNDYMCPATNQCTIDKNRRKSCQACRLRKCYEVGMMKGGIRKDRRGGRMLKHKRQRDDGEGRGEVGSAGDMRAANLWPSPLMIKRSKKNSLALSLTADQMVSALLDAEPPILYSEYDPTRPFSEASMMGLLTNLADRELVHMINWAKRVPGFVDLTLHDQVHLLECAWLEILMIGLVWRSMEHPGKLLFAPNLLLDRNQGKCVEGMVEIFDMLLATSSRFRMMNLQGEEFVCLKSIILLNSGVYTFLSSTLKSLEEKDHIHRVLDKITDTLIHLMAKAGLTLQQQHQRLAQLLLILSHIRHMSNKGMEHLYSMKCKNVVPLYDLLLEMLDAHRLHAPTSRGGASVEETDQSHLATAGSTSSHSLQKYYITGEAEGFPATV

[2] = biological target: T2, zfERα (Danio rerio, UniProt P57717); experiment: HELN-zfERα luciferase transactivation assay; details: for potency profile among zfER subtypes: Supplementary Fig. 2A and data not shown
T2 sequence (P57717 1-569): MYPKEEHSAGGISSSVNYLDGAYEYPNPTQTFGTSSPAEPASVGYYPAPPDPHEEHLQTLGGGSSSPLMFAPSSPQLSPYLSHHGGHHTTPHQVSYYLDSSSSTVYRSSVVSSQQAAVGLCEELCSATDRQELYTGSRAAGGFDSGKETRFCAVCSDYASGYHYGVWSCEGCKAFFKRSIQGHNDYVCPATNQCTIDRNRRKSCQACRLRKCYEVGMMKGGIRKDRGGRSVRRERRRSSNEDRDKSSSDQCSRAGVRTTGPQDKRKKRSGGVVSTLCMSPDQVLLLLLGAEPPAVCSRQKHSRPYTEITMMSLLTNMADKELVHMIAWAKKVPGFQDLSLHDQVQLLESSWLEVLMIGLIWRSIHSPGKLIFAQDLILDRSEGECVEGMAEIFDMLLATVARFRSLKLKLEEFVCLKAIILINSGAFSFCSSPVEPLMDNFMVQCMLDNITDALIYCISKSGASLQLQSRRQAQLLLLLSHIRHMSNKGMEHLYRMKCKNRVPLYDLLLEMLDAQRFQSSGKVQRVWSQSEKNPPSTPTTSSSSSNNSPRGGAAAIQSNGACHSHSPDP

[3] = biological target: T2, zfERα; experiment: HELN-zfERα transcriptional inhibition; assay type: cell-based, zebrafish
[4] = biological target: T3, zfERβ1 (Danio rerio, UniProt Q5PR29); assay type: cell-based, zebrafish; details: HELN-zfERβ1
[5] = biological target: T4, zfERβ2 (Danio rerio, UniProt Q7ZU32); experiment: HELN-zfERβ2 transcriptional inhibition; assay type: cell-based, zebrafish
[6] = biological target: T3, zfERβ1; details: for agonistic activity on zfERβ1 (in words): HELN-zfERβ1; for EC50: read-out: zfERβ1 EC50
[7] = biological target: T4, zfERβ2; details: for agonistic activity on zfERβ2 (in words): HELN-zfERβ2; for EC50: read-out: zfERβ2 EC50
[8] = biological target: hERβ (Homo sapiens, UniProt Q92731); details: ref Escande et al., 2006; cited from earlier work
[9] = tested on: 5×ERE:GFP reporter; details: 5×ERE:GFP zebrafish larvae, cited from earlier work; for tissue of GFP expression: ref Gorelik et al., 2014
[10] = biological target: T4, zfERβ2; experiment: cell-based; details: zfERβ2 EC50, HELN-zfERβ2, 28 °C
[11] = biological target: T3, zfERβ1; experiment: cell-based; details: zfERβ1 EC50, HELN-zfERβ1, 28 °C
[12] = biological target: T2, zfERα; details: zebrafish liver-derived cell lines; ref Cosnefroy et al. (2012); cited from earlier work

Chain of hERβ (Q92731 whole entry): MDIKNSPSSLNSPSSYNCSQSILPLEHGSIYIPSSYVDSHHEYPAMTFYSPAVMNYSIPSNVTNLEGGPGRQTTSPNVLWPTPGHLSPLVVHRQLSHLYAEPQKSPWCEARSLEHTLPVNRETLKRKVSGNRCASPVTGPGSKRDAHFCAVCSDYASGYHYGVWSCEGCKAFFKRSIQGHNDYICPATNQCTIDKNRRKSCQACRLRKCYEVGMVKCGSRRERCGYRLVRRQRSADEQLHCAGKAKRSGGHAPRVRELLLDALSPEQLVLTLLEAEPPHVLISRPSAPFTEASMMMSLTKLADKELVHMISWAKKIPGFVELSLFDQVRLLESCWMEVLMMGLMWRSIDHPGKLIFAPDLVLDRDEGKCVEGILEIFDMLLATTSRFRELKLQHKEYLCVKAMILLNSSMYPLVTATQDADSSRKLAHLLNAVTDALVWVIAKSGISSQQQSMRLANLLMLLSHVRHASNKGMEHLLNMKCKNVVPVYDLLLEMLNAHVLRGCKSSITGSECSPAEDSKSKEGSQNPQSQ

## C[C@]12CC[C@@H]3c4ccc(O)cc4CC[C@H]3[C@@H]1C[C@H]1OC(=O)C[C@]12O [16α-LE2, 3,17-Dihydroxy-19-nor-17α-pregna-1,3,5(10)-triene-21,16α-lactone]
[1]
  fold potency/selectivity in reporter gene activation hERα over hERβ: over 1000 fold
[1]; listed as 16α-E2
  fold potency/selectivity in reporter gene activation hERα over hERβ: 1000 fold
[2]; transactivation, 28 °C
  fold higher potency zfERα compared to zfERβ1: approximately 429 fold
  fold higher potency zfERα compared to zfERβ2: ~115 fold

## CCCc1c(-c2ccc(O)cc2)nn(-c2ccc(O)cc2)c1-c1ccc(O)cc1 [PPT, 4,4′,4″-(4-Propyl-[^1H]-pyrazole-1,3,5-triyl)trisphenol]
[3]
  antagonistic activity on zfERα (in words): full antagonistic activity
[4]
  antagonistic activity on zfERβ1 (in words): partially antagonize
[5]
  antagonistic activity on zfERβ2 (in words): partially antagonize
[6]
  agonistic activity on zfERβ1 (in words): partially activated; also recorded: slightly activated
[7]
  agonistic activity on zfERβ2 (in words): partially activated; also recorded: slightly activated
[8]
  agonistic activity on hERβ (in words): unable to activate hERβ
[9]
  tissue of GFP expression: GFP labeling of only the larval liver
[2]; HELN-zfERα
  agonistic activity on zfERα (in words): did not activate zfERα at all; also recorded: devoid of agonistic activity

## C[C@]12CC[C@@H]3c4ccc(O)cc4CC[C@H]3[C@@H]1CCC2=O [E1, 1,3,5[10]-estratriene-3-ol-17-one]
[10]
  EC50: 12.1 nM

## CC(C)(C)CC(C)(C)c1ccc(O)cc1 [4-Tert-octylphenol, 4-tert-octylphenol]
[6]
  agonistic activity on zfERβ1 (in words): full agonists
[7]
  agonistic activity on zfERβ2 (in words): partial agonists

## Cc1c(-c2ccc(O)cc2)nn(-c2ccc(O)cc2)c1-c1ccc(OCCN2CCCCC2)cc1.Cl.Cl [MPP, 1,3-bis (4-hydroxyphenyl)-4-methyl-5-[4-(2-piperidinylethoxy)phenol]-1H-pyrazole dihydrochloride]
[4]
  antagonistic activity on zfERβ1 (in words): slight zfERβ1 selectivity

## C[C@H]1CCC[C@H](O)CCC/C=C/c2cc(O)cc(O)c2C(=O)O1 [α-Zearalenol, α-zearalenol]
[2]
  potency profile among zfER subtypes: zfERα potency > zfERβ1 potency ≥ β2 potency

## C[C@H]1CCC[C@@H](O)CCCCCc2cc(O)cc(O)c2C(=O)O1 [β-zearalanol]
[2]
  potency profile among zfER subtypes: zfERα potency > zfERβ1 potency ≥ β2 potency

## C[C@H]1CCCC(=O)CCCCCc2cc(O)cc(O)c2C(=O)O1 [zearalanone]
[2]
  potency profile among zfER subtypes: zfERα potency > zfERβ1 potency ≥ β2 potency

## C#C[C@]1(O)CC[C@H]2[C@@H]3CCc4cc(O)ccc4[C@H]3CC[C@@]21C [EE2, 17α-ethynyl-1,3,5[10]-estratriene-3,17β-diol]
[6]; HELN-zfERβ1, 37 °C
  EC50: 0.673 nM
[7]; HELN-zfERβ2, 28 °C
  EC50: ~0.031 nM
[7]; HELN-zfERβ2, 37 °C
  EC50: ~0.197 nM
[2]; read-out: zfERα EC50, HELN-zfERα, 31 °C
  EC50: 0.127 nM
[2]; read-out: zfERα EC50, HELN-zfERα, 34 °C
  EC50: 0.19 nM
[2]; read-out: zfERα EC50, HELN-zfERα, 37 °C
  EC50: 0.947 nM

## C[C@H]1CCC[C@H](O)CCCCCc2cc(O)cc(O)c2C(=O)O1 [α-Zearalanol, α-zearalanol]
[6]; HELN-zfERβ1, 28 °C
  EC50: 0.71 nM

## CCC(=C(c1ccc(O)cc1)c1ccc(OCCN(C)C)cc1)c1ccccc1 [4OH-tamoxifen, 1-[p-dimethylaminoethoxyphenyl]-1-(4-hydroxyphenyl)-2-phenyl-1-butene]
[3]
  antagonistic activity on zfERα (in words): full antagonistic activity
[4]
  antagonistic activity on zfERβ1 (in words): full antagonistic activity
[5]
  antagonistic activity on zfERβ2 (in words): full antagonistic activity
[6]
  agonistic activity on zfERβ1 (in words): No agonistic activity
[7]
  agonistic activity on zfERβ2 (in words): No agonistic activity
[2]
  agonistic activity on zfERα (in words): No agonistic activity

## C[C@H]1CCCC(=O)CCC/C=C/c2cc(O)cc(O)c2C(=O)O1 [zearalenone]
[2]
  potency profile among zfER subtypes: zfERα potency > zfERβ1 potency ≥ β2 potency

## N#CC(Cc1ccc(O)cc1)c1ccc(O)cc1 (stereo not shown) [DPN, 2,3-bis(4-hydroxyphenyl)-propionitrile]
[9]
  tissue of GFP expression: preferentially induced GFP expression in the heart valves

## CC(C)(c1ccc(O)cc1)c1ccc(O)cc1 [BPA, bisphenol A]
[6]
  agonistic activity on zfERβ1 (in words): partial agonist
[7]
  agonistic activity on zfERβ2 (in words): partial agonist
[9]
  tissue of GFP expression: preferentially induced GFP expression in the heart valves
[11]; text value in μM
  EC50: 1.89 µM
[2]; HELN-zfERα
  agonistic activity on zfERα (in words): partial agonist

## O=C(c1ccc(O)cc1O)c1ccc(O)cc1O [BP2, 2,2′,4,4′-tetrahydroxybenzophenone]
[6]
  agonistic activity on zfERβ1 (in words): full agonist
[7]
  agonistic activity on zfERβ2 (in words): full agonist
[7]; transactivation, 28 °C
  fold higher potency zfERβ2 compared to zfERβ1: 3 fold
[12]
  fold higher potency zfERα compared to zfERβ1: ~2 fold
  fold higher potency zfERα compared to zfERβ2: approximately 1.36 fold
[11]
  EC50: ~0.803 µM
[10]
  EC50: ~233 nM
[2]; HELN-zfERα
  agonistic activity on zfERα (in words): full agonist
[2]; transactivation, 28 °C
  fold higher potency zfERα compared to zfERβ1: 3 fold
[2]; zfERα EC50, HELN-zfERα, 28 °C
  EC50: ~251 nM

## O=c1c(-c2ccc(O)cc2)coc2cc(O)cc(O)c12 [Genistein, 40,5,7-trihydroxyisoflavone]
[9]
  tissue of GFP expression: preferentially induced GFP expression in the heart valves

## C[C@]12CC[C@@H]3c4ccc(O)cc4C[C@@H](CCCCCCCCC[S+]([O-])CCCC(F)(F)C(F)(F)F)[C@H]3[C@@H]1CC[C@@H]2O (stereo partly drawn) [ICI 182,780, 7α,17β-[9[(4,4,5,5,5-pentafluoropentyl)sulfinyl]nonyl]estra-1,3,5(10)-triene-3,17-diol]
[3]
  antagonistic activity on zfERα (in words): full antagonistic activity
[3]; read-out: zfERα IC50, together with 1 nM E2, 28 °C
  IC50: 3 nM
[4]
  antagonistic activity on zfERβ1 (in words): full antagonistic activity
[5]
  antagonistic activity on zfERβ2 (in words): full antagonistic activity
[6]
  agonistic activity on zfERβ1 (in words): No agonistic activity
[7]
  agonistic activity on zfERβ2 (in words): No agonistic activity
[9]; ref Gorelik and Halpern., 2011
  effect on E2-induced fluorescence in liver: reduce the E2-induced fluorescence in liver
[2]; HELN-zfERα
  agonistic activity on zfERα (in words): No agonistic activity

## O=C1C[C@@H](c2ccc(O)cc2)Oc2cc(O)ccc21 [Liquiritigenin, liquiritigenin]
[6]
  agonistic activity on zfERβ1 (in words): did not activate zfERβ1 at all
[2]; read-out: zfERα EC50, HELN-zfERα, 28 °C
  EC50: 563 nM

## C[C@H]1CCC[C@@H](O)CCC/C=C/c2cc(O)cc(O)c2C(=O)O1 [β-zearalenol]
[2]
  potency profile among zfER subtypes: zfERα potency > zfERβ1 potency ≥ β2 potency
